Here are results for two compounds from US6491951B1, “Soluble compositions of toremifene” (Orion Corporation, priority 1998, dated 2002).

The nature of series [1]: Dissolving toremifene base in aqueous compositions with a solubility enhancing acid. The class given is physicochemical. An excerpt: The compositions of the invention can be prepared e.g. by mixing an amount of a solubility enhancing acid of the invention and purified water, adding thereafter toremifene base or a pharmaceutically acceptable salt thereof and agitating the mixture. pH may be adjusted with a water solution of corresponding acid salt or e.g. sodium hydroxide. The solubility enhancing agent is preferably used in molar excess with respect to toremifene or a pharmaceutically acceptable salt thereof. More preferably, the molar excess is at least about 1.5 fold, and most preferably at least about 2 fold, e.g. from about 2 to about 100 fold, typically from about 2 to about 10 fold.
The experiments also compare the effect of solubility enhancing agents of the invention to other acids such as hydrochloric acid, gluconic acid or citric acid.
Glacial acetic acid and purified water were mixed, toremifene base was added and dissolved. pH of the solution was about 4.
Lactic acid (85% water solution) and purified water were mixed, toremifene base was added and dissolved.
Formic acid and purified water were mixed, toremifene base was added and dissolved.
Toremifene base was dissolved in methanesulfonic acid, then purified water was added.
Lactic acid (85% water solution) and purified water were mixed, toremifene base was added and dissolved. pH was adjusted to about 5 by sodium lactate (50% water solution).
Manufactured as above but pH was adjusted to about 5 with sodium hydroxide.
Hydrochloric acid and purified water were mixed, toremifene base was added. Toremifene was not dissolved.
Sodium gluconate, concentrated hydrochloric acid and purified water were mixed, toremifene base was added. Toremifene was not dissolved.
Toremifene base and 30% water solution of citric acid were mixed together and ethanol was added gradually. Toremifene was not dissolved.

The next series can be described thus: pKa value of toremifene. The class given is physicochemical.
For series [2] the following is noted: background statement; cited from earlier work.
Series [3] is described as follows: Water solubility of toremifene and its salts. The class given is physicochemical. The settings on record: compared with toremifene citrate.

For `CN(C)CCOc1ccc(/C(=C(/CCCl)c2ccccc2)c2ccccc2)cc1` [Toremifene base, toremifene], the “Dissolution of toremifene base” value is “dissolved” in series [1] (Example 1: 18.4% toremifene base, glacial acetic acid 9.0%, purified water 72.6%, pH about 4); “dissolved” in series [1] (Example 2: 52.6% toremifene base, lactic acid (85%) 24.0%, purified water 23.4%); “dissolved” in series [1] (Example 3: 8.2% toremifene base, formic acid 1.6%, purified water 90.2%); “A clear solution was obtained” in series [1] (Example 4: 16.7% toremifene base dissolved in methanesulfonic acid 66.6%, then purified water 16.7% added); “dissolved” in series [1] (Example 5: 3.7% toremifene base, lactic acid (85%) 1.7%, sodium lactate (50%) 4.4%, purified water 90.2%, pH about 5); “not dissolved” in series [1] (Example 7 (reference): 9.1% toremifene base, hydrochloric acid 1 N 31.8%, purified water 59.1%). Also, the “Dissolution of toremifene base” value in series [1] (Example 8 (reference): 1.0% toremifene base, sodium gluconate 1.0%, concentrated hydrochloric acid 1.0%, purified water 97.0%) is given as “not dissolved”; in series [1] (Example 9 (reference): 1.0% toremifene base, citric acid (30%) 10.3%, ethanol 88.7%), “not dissolved”. In addition, the “Toremifene base content of the aqueous solution (by weight of the composition)” value in series [1] (Example 1: glacial acetic acid 9.0%, purified water 72.6%, pH of the solution about 4) is 18.4%; in series [1] (Example 2: lactic acid (85%) 24.0%, purified water 23.4%), 52.6%; in series [1] (Example 3: formic acid 1.6%, purified water 90.2%), 8.2%; in series [1] (Example 4: methanesulfonic acid 66.6%, purified water 16.7%), 16.7%; in series [1] (Example 5: lactic acid (85%) 1.7%, sodium lactate (50%) 4.4%, purified water 90.2%, pH about 5) it was 3.7%; in series [1] (Example 6: lactic acid (85%) 18.2%, sodium hydroxide 2 N 27.3%, purified water 18.2%, pH about 5), 36.3%. The “Concentration of toremifene base solutions that can be prepared” value in series [1] (two fold molar excess of lactic acid and purified water) was “about 50 w-%”; in series [1] (two fold molar excess of lactic acid, pH adjusted to about 5 with sodium hydroxide), “about 36 w-%”. The compound also displayed a pKa in “pKa value of toremifene” of 8. Moreover, the Solubility in water result in series [2] is given as “poorly soluble in water”.

Regarding toremifene mesylate, the “Solubility in distilled water relative to toremifene citrate” value in series [3] is “about 70 times higher”.

Usually pKa stands for the negative logarithm of the acid dissociation constant. A lower pKa goes with a group that gives up its proton readily.
